Target: Transient receptor potential cation channel subfamily M member 4 (Homo sapiens, UniProt Q8TD43)
Experiment: Inhibition of TRPM4 (unknown origin)

Transient receptor potential cation channel subfamily M member 4, sequence (Q8TD43 whole entry): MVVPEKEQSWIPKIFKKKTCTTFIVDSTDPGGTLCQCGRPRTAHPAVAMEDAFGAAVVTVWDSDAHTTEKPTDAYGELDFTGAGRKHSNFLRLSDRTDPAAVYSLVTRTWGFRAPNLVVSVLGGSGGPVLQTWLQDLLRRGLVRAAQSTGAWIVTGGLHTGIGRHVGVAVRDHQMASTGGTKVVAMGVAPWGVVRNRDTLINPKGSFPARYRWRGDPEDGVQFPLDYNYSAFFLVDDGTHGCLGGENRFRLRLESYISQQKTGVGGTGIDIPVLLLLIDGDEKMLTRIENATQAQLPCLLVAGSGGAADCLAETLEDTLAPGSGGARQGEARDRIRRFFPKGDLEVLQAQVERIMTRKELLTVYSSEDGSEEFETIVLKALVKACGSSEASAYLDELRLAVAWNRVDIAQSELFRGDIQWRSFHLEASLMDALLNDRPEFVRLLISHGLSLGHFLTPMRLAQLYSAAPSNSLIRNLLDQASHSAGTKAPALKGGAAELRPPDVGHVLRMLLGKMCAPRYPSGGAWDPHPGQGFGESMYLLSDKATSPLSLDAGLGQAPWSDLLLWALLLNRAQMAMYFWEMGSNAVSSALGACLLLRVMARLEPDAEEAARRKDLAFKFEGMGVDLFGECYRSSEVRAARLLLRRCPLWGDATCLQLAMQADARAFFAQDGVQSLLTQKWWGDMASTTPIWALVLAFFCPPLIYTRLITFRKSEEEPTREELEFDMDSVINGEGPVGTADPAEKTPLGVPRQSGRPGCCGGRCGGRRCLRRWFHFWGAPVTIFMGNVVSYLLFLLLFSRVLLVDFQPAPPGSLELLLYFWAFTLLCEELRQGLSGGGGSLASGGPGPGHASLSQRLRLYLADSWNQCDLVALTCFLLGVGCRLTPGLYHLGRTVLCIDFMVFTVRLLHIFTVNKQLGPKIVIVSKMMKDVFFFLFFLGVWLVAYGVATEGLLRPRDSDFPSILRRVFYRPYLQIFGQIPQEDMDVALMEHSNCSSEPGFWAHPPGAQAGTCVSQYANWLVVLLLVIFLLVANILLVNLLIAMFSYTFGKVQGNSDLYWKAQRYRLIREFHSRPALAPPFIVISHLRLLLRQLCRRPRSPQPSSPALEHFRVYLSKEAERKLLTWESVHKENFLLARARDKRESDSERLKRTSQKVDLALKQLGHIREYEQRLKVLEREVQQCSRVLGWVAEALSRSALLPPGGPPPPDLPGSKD

## Oc1cc2ccccc2c2ccccc12
  IC50: 29 µM

From BindingDB's records for doi:10.1016/j.ejmech.2019.01.048 (University of Berne, 2019)
